Assay results from patent US20200297820A1, “STIMULATION OF HUMAN MEIBOMIAN GLAND FUNCTION” (The Schepens Eye Research Institute, Inc., priority 2013, published 2020).

Key:
[1] = test system: immortalized human meibomian gland epithelial cells; experiment: LipidTOX green neutral lipid staining (lipid accumulation); type: cell-based; details: for lipid accumulation: 10^−8 M
Protocol: (§1) As an example of these experiments, immortalized human meibomian gland epithelial cells were cultured in the presence or absence of 10% fetal bovine serum. Cells were treated with an ethanol vehicle or azithromycin (10 μg/ml; Santa Cruz Biotechnology) for varying time periods. Cellular morphological appearance was recorded, cells were counted with a hemocytometer, and lipid accumulation was assessed by staining the cells with LipidTOX green neutral lipid stain (Invitrogen, Grand Island, N.Y.), according to reported methods. Staining fluorescent intensities were quantified by using ImageJ (http://rsbweb.nih.gov/ij/index.html). Statistical analyses were performed with Student's t-test (two-tailed, unpaired).
(§2) Immortalized human meibomian gland epithelial cells (IHMGECs; passages 20-22) were cultured in the presence or absence of 10% fetal bovine serum. Cells were treated with the ethanol vehicle or azithromycin (10 μg/mL) for varying periods. Cellular morphological appearance was recorded, cells were counted with a hemocytometer, and lipid accumulation was assessed by staining cells with LipidTOX green neutral lipid stain (Invitrogen Corp). Staining fluorescent intensities were quantified using ImageJ software (http://rsbweb.nih.gov/ij/index.html). Statistical analyses were performed with t test (2-tailed, unpaired).
Cell numbers were enumerated with a hemocytometer. Cellular lipid and lysosome accumulation were examined by staining cells with: Filipin III (a fluorometric probe for identifying unesterified cholesterol), LipidTOX green neutral lipid stain, and LysoTracker® Red DND-99 (a fluorescent technique designed for labeling acidic organelles such as lysosomes). Lysosomal lamellar bodies were identified by transmission electron microscopy. In brief, after culture and treatment on 24 mm polycarbonate membrane transwell inserts (0.4 μm pore size), cells were fixed in a solution of 2% formaldehyde+2.5% glutaraldehyde, in 0.08 M sodium cacodylate buffer, pH 7.4, post-fixed with 2% osmium tetroxide in 0.1 M sodium cacodylate buffer, and stained en bloc with 2% aqueousuranyl acetate. […] Cross sections (1 μM) were stained with 1% toluidine blue in 1% sodium tetraborate solution. Ultra-thin sections (60-90 nm) were imaged with a transmission electron microscope interfaced with a digital CCD camera. For biochemical assessments, cellular lipids were extracted with chloroform and methanol from samples with the same amount of protein. Lipids were then evaluated with high-performance thin-layer chromatography. With regard to the staining results, three Filipin, five LipidTox and four LysoTracker studies were conducted, and each experiment was performed in duplicate. Four random pictures were taken of each group, and four random areas were selected for the measurement of fluorescent intensities. The HPTLC experiments were performed in duplicate more than three times. Image data were quantified with ImageJ (http://rsbweb.nib.gov/ij/index.html). Electron microscopic analyses were performed in triplicate.
The experiment included green neutral lipid staining. Immortalized human meibomian gland epithelial cells were cultured in slides treated to facilitate cell growth in FBS-containing medium in the presence or absence of IGF-1, anti-IGF-1R, and/or GH. Media were replaced every 2 to 3 days for a total of 6 days, at which time cells were washed and fixed in 4% paraformaldehyde for 30 minutes. After additional washes, cells were stained with green neutral lipid stain in a humid chamber for 30 minutes. Coverslips were mounted on slides with an antifade reagent that contains 4′,6-diamidino-2-phenylindole nuclear stain and permitted to dry overnight before imaging with a microscope. Fluorescence intensity was quantified using image-processing software.

[2] = test system: immortalized human meibomian gland cells; experiment: 13-cis RA-induced late apoptosis/necrosis; type: cell-based
[3] = test system: human meibomian gland epithelial cells; experiment: Immunoblot of signaling pathways (Akt, FoxO1, ERK, JAK2/STAT5); type: cell-based
Protocol: The disclosure turns now to sodium dodecyl sulfate-polyacrylamide gel, electrophoresis, and immunoblots. Cells were directly lysed in Laemmli buffer supplemented with 1% protease inhibitor cocktail (Sigma-Aldrich) and 5% β-mercaptoethanol (Sigma-Aldrich). Lysates were heated at 95° C. for 10 minutes, separated by sodium dodecyl sulfate-polyacrylamide gel electrophoresis on 10% Tris-glycine precast gels, and transferred to polyvinylidene difluoride membranes. Rabbit or mouse antibodies used were specific for phosphorylated Akt (p-Akt), pan-Akt, p-FoxO1, FoxO1, p-JAK2, JAK2, and β-actin; for p-ERK, ERK-2, STAT5, and the precursor form of SREBP-1; and for p-STAT5. Membranes were blocked with 5% bovine serum albumin in Tris-buffered saline containing 0.01% polysorbate 20. All primary antibodies were diluted to 1:1000 in blocking buffer except for p-Akt (1:4000), p-ERK (1:2000), ERK-2 (1:4000), SREBP-1 (1:200), and β-actin (1:10 000). Horseradish peroxidase-conjugated secondary antibodies were goat anti-rabbit IgG and Fc-specific goat anti-mouse IgG diluted to 1:5000. Proteins were visualized with enhanced chemiluminescent substrate or with ultrasensitive chemiluminescent substrate. Densitometry was performed with image-processing software.
To determine whether IGF-1 promotes the phosphorylation of Akt in human meibomian gland epithelial cells, cells were cultured under proliferating or differentiating conditions and then exposed to IGF-1 for 15 minutes.
FIGS. 9a, 9b, and 9c illustrate the effects of insulin-like growth factor 1 (IGF-1) and growth hormone (GH) on signaling pathways in human meibomian gland epithelial cells. Cells were cultured in keratinocyte serum-free medium containing epidermal growth factor (EGF) and bovine pituitary extract (BPE) for 2 days and then keratinocyte serum-free medium alone overnight or were cultured in 10% fetal bovine serum (FBS) medium for 5 to 7 days and in 1% FBS medium overnight. Cells were then incubated with vehicle or a 10 μM concentration of LY294002 for 2 hours, followed by IGF-1 or GH treatment for 15 minutes. Cell lysates were evaluated on immunoblotting. […] These experiments were repeated at least 3 times with similar results.
To assess whether GH activates Akt, FoxO1, ERK-2, or its classic (i.e., JAK2 and STAT5) signaling pathways in human meibomian gland epithelial cells, cells were cultured in proliferating or differentiating media, and were exposed to a 10 nM concentration of GH for 15 minutes, and processed for immunoblot analyses. […]

[4] = test system: immortalized human meibomian gland epithelial cells; experiment: Cell proliferation, cells counted with a hemocytometer; type: cell-based; details: insulin
Protocol: as §1, §2
Regarding cell proliferation assay, the human meibomian gland epithelial cells and LNCaP cells were cultured in 12-well plates in designated media and then exposed to IGF-1 or GH for defined periods. At experimental termination, cells were trypsinized and counted with a hemocytometer.
FIGS. 10a, 10b, and 10c illustrate the influence of IGF-1 on the proliferation of human meibomian gland epithelial cells. Cells were cultured (100,000 cells/well in 12-well plates, 3 wells per group) in basal, proliferating, and/or differentiating media and treated with IGF-I for 2 to 6 days. […] P values are for post hoc comparison compared with the control value. […] ANOVA indicates analysis of variance; EGF-BPE, epidermal growth factor-bovine pituitary extract; KSFM, keratinocyte serum-free medium. All comparisons are with control value. Whiskers mark SEM. aP<0.05 compared with the control value, post hoc test.

[5] = one trial; cited from earlier work

## CC(=O)[C@H]1CC[C@H]2[C@@H]3CCC4=CC(=O)CC[C@]4(C)[C@H]3CC[C@]12C [progesterone]
[1]
  lipid accumulation: marked lipid accumulation

## CC1=C(/C=C/C(C)=C/C=C/C(C)=C\C(=O)O)C(C)(C)CCC1 [13-cis RA]
[2]
  induction of late apoptosis/necrosis: induced late apoptosis/necrosis

## Insulin: insulin, an IGF-1 analogue
[3]; cells in serum-containing medium 5-7 days before treatment
  activation of AKT signaling pathway: dose-dependent manner
[1]; insulin
  accumulation of neutral lipids: promotes meibomian gland epithelial cell accumulation of neutral lipids
[4]
  cell proliferation: promotes meibomian gland epithelial cell proliferation

## C[C@]12CCC(=O)C[C@@H]1CC[C@@H]1[C@@H]2CC[C@]2(C)[C@@H](O)CC[C@@H]12 [Dihydrotestosterone]
[3]
  phosphorylation of extracellular-signal-regulated kinases (ERKs): increase the phosphorylation
[1]
  lipid accumulation: marked lipid accumulation

B1: figitumumab: human IgG2 monoclonal antibody that prevents the binding of IGF-1 to its receptor (antibody, chains of the INN, looked up)
heavy: EVQLLESGGGLVQPGGSLRLSCTASGFTFSSYAMNWVRQAPGKGLEWVSAISGSGGTTFYADSVKGRFTISRDNSRTTLYLQMNSLRAEDTAVYYCAKDLGWSDSYYYYYGMDVWGQGTTVTVSSASTKGPSVFPLAPCSRSTSESTAALGCLVKDYFPEPVTVSWNSGALTSGVHTFPAVLQSSGLYSLSSVVTVPSSNFGTQTYTCNVDHKPSNTKVDKTVERKCCVECPPCPAPPVAGPSVFLFPPKPKDTLMISRTPEVTCVVVDVSHEDPEVQFNWYVDGVEVHNAKTKPREEQFNSTFRVVSVLTVVHQDWLNGKEYKCKVSNKGLPAPIEKTISKTKGQPREPQVYTLPPSREEMTKNQVSLTCLVKGFYPSDIAVEWESNGQPENNYKTTPPMLDSDGSFFLYSKLTVDKSRWQQGNVFSCSVMHEALHNHYTQKSLSLSPG
light: DIQMTQFPSSLSASVGDRVTITCRASQGIRNDLGWYQQKPGKAPKRLIYAASRLHRGVPSRFSGSGSGTEFTLTISSLQPEDFATYYCLQHNSYPCSFGQGTKLEIKRTVAAPSVFIFPPSDEQLKSGTASVVCLLNNFYPREAKVQWKVDNALQSGNSQESVTEQDSKDSTYSLSSTLTLSKADYEKHKVYACEVTHQGLSSPVTKSFNRGEC
[5]
  most common adverse effect: DED
